This is an account of results in patent publication US20220008391A1, “NOVEL COMPOUNDS FOR CONTROLLING ARTHROPODS” (Bayer Animal Health GmbH, priority 2018, published 2022).

Values after ≈ are worked out from the molar mass of the structure shown.

A short description of this series: Measurement of solubility in buffer at pH 6.5. It is filed as physicochemical. The note with it: aqueous buffer, kinetic from dmso stock; PBS buffer pH 6.5, shaken 24h at rt, LC-MSMS; read-out: Solubility of example compounds at pH 6.5. The method, then: Measurement of Solubility in Buffer at pH 6.5 2-4 mg of the test compound are dissolved in DMSO to reach a concentration of 50 g/L (solution A). To 10 μl of this solution 960 μl PBS buffer pH 6.5 are added (final concentration: 515 μg/1); the mixture is shaken for 24h at rt in a 96 well plate. An aliquot is centrifuged at 42000 rpm für 30 min. The supernatant is diluted with acetonitrile/water (8:2) 1:10 and 1:1000 resp. This diluted samples are analyzed by LC-MSMS. Calibration: 10 μl of solution A are diluted with 823 μl DMSO (final concentration: 600 μg/ml), which is further diluted with acetonitrile/water 8:2 by a factor of 100 (provides solution B). The calibration curve is obtained from solution B by further diluting with acetonitrile/water 8:2 with target concentrations of 1.2-12-60-600 ng/ml and injecting these four solutions for MS measurement. PBS-Puffer: 6.18 g sodium chloride and 3.96 g sodium dihydrogen phosphate are dissolved in 1 L aqua dist., the pH is adjusted to 6.5 with 1N sodium hydroxide. The following conditions were used for quantification: Autosampler without auto inject ahead setting, column: Waters OASIS HLB, 2,1×20 mm, 25μ, column temperature: 30° C., flow rate: 2.5 mL/min, injected volume: 2 μl, Splitter (before MS) 1:20.
`Cn1nc(C(F)(F)C(F)(F)F)c(C(F)(F)F)c1-n1cc(-c2ccc(Cl)c(C(=O)N(COC(=O)OCCCC(=O)O)C3(C#N)CC3)c2)cn1` [Example 20, 4-[({[{2-Chloro-5-[2′-methyl-5′-(pentafluoroethyl)-4′-(trifluoromethyl)-2′H-[1,3′-bipyrazol]-4-yl]benzoyl}(1-cyanocyclopropyl)amino]methoxy}carbonyl)oxy]butanoic Acid]: the solubility (commonly the dissolved amount per volume that the medium holds) at 24 h came out at 212 µg/mL (≈ 297 µM).

For `Cn1nc(C(F)(F)C(F)(F)F)c(C(F)(F)F)c1-n1cc(-c2ccc(Cl)c(C(=O)N(COC(=O)OCC(C)(C)C(=O)O)C3(C#N)CC3)c2)cn1` [Example 21, 3-[({[{2-Chloro-5-[2′-methyl-5′-(pentafluoroethyl)-4′-(trifluoromethyl)-2′H-[1,3′-bipyrazol]-4-yl]benzoyl}(1-cyanocyclopropyl)amino]methoxy}carbonyl)oxy]-2,2-dimethylpropanoic Acid], the solubility at 24 h is 136 µg/mL (≈ 187 µM).

As for `Cn1nc(C(F)(F)C(F)(F)F)c(C(F)(F)F)c1-n1cc(-c2ccc(Cl)c(C(=O)N(COC(=O)O[C@H]3CC[C@H](OC(=O)/C=C/C(=O)O)CC3)C3(C#N)CC3)c2)cn1` [Example 22, Trans (2E)-4-({-4-[({[{2-chloro-5-[2′-methyl-5′-(pentafluoroethyl)-4′-(trifluoromethyl)-2′H-[1,3′-bipyrazol]-4-yl]benzoyl}(1-cyanocyclopropyl)amino]methoxy}carbonyl)oxy]cyclohexyl}oxy)-4-oxobut-2-enoic Acid], the solubility at 24 h was 17 µg/mL (≈ 20.7 µM).

As to `Cn1nc(C(F)(F)C(F)(F)F)c(C(F)(F)F)c1-n1cc(-c2ccc(Cl)c(C(=O)N(COC(=O)O[C@H]3CC[C@@H](C(=O)O)CC3)C3(C#N)CC3)c2)cn1` [Example 23, Cis-4-[({[{2-Chloro-5-[2′-methyl-5′-(pentafluoroethyl)-4′-(trifluoromethyl)-2′H-[1,3′-bipyrazol]-4-yl]benzoyl}(1-cyanocyclopropyl)amino]methoxy}carbonyl)oxy]cyclohexane-1-carboxylic Acid], the solubility at 24 h came to 50 µg/mL (≈ 66.4 µM).

Turning to `Cn1nc(C(F)(F)C(F)(F)F)c(C(F)(F)F)c1-n1cc(-c2ccc(Cl)c(C(=O)N(COC(=O)O[C@H]3CC[C@H](C(=O)O)CC3)C3(C#N)CC3)c2)cn1` [Example 24, Trans-4-[({[{2-Chloro-5-[2′-methyl-5′-(pentafluoroethyl)-4′-(trifluoromethyl)-2′H-[1,3′-bipyrazol]-4-yl]benzoyl}(1-cyanocyclopropyl)amino]methoxy}carbonyl)oxy]cyclohexane-1-carboxylic Acid], the solubility at 24 h turned out to be 57 µg/mL (≈ 75.7 µM).

With `Cn1nc(C(F)(F)C(F)(F)F)c(C(F)(F)F)c1-n1cc(-c2ccc(Cl)c(C(=O)N(COC(=O)OCCCOC(=O)/C=C/C(=O)O)C3(C#N)CC3)c2)cn1` [Example 25, (12E)-1-{2-Chloro-5-[2′-methyl-5′-(pentafluoroethyl)-4′-(trifluoromethyl)-2′H-[1,3′-bipyrazol]-4-yl]phenyl}-2-(1-cyanocyclopropyl)-1,5,11-trioxo-4,6,10-trioxa-2-azatetradec-12-en-14-oic Acid], the solubility at 24 h was determined as 98 µg/mL (≈ 125 µM).

On to `Cn1nc(C(F)(F)C(F)(F)F)c(C(F)(F)F)c1-n1cc(-c2ccc(Cl)c(C(=O)N(COC(=O)OCCCOC(=O)CCC(=O)O)C3(C#N)CC3)c2)cn1` [Example 26, 1-{2-Chloro-5-[2′-methyl-5′-(pentafluoroethyl)-4′-(trifluoromethyl)-2′H-[1,3′-bipyrazol]-4-yl]phenyl}-2-(1-cyanocyclopropyl)-1,5,11-trioxo-4,6,10-trioxa-2-azatetradecan-14-oic Acid], for which the solubility at 24 h is 96 µg/mL (≈ 122 µM).

Regarding `Cn1nc(C(F)(F)C(F)(F)F)c(C(F)(F)F)c1-n1cc(-c2ccc(Cl)c(C(=O)N(COC(=O)OCCOC(=O)C3(C(=O)O)CC3)C3(C#N)CC3)c2)cn1` [Example 27, 1-[10-{2-Chloro-5-[2′-methyl-5′-(pentafluoroethyl)-4′-(trifluoromethyl)-2′H-[1,3′-bipyrazol]-4-yl]phenyl}-9-(1-cyanocyclopropyl)-6,10-dioxo-2,5,7-trioxa-9-azadecanan-1-oyl]cyclopropane-1-carboxylic Acid], the solubility at 24 h worked out at 147 µg/mL (≈ 188 µM).

Take `Cn1nc(C(F)(F)C(F)(F)F)c(C(F)(F)F)c1-n1cc(-c2ccc(Cl)c(C(=O)N(COC(=O)OCCOC(=O)CCCC(=O)O)C3(C#N)CC3)c2)cn1` [Example 28, 1-{2-Chloro-5-[2′-methyl-5′-(pentafluoroethyl)-4′-(trifluoromethyl)-2′H-[1,3′-bipyrazol]-4-yl]phenyl}-2-(1-cyanocyclopropyl)-1,5,10-trioxo-4,6,9-trioxa-2-azatetradecan-14-oic Acid]: the solubility at 24 h was determined as 76 µg/mL (≈ 96.8 µM).

`Cn1nc(C(F)(F)C(F)(F)F)c(C(F)(F)F)c1-n1cc(-c2ccc(Cl)c(C(=O)N(COC(=O)OCC(C)(C)COC(=O)CCC(=O)O)C3(C#N)CC3)c2)cn1` [Example 29, 1-{2-Chloro-5-[2′-methyl-5′-(pentafluoroethyl)-4′-(trifluoromethyl)-2′H-[1,3′-bipyrazol]-4-yl]phenyl}-2-(1-cyanocyclopropyl)-8,8-dimethyl-1,5,11-trioxo-4,6,10-trioxa-2-azatetradecan-14-oic Acid]: the solubility at 24 h was 35 µg/mL (≈ 43 µM).

Take `Cn1nc(C(F)(F)C(F)(F)F)c(C(F)(F)F)c1-n1cc(-c2ccc(Cl)c(C(=O)N(COC(=O)OCC(=O)O)C3(C#N)CC3)c2)cn1` [Example 30, [({[{2-Chloro-5-[2′-methyl-5′-(pentafluoroethyl)-4′-(trifluoromethyl)-2′H-[1,3′-bipyrazol]-4-yl]benzoyl}(1-cyanocyclopropyl)amino]methoxy}carbonyl)oxy]acetic Acid]: the solubility at 24 h was 398 µg/mL (≈ 581 µM).

Regarding `Cn1nc(C(F)(F)C(F)(F)F)c(C(F)(F)F)c1-n1cc(-c2ccc(Cl)c(C(=O)N(COC(=O)OCC3(C(=O)O)CC3)C3(C#N)CC3)c2)cn1` [Example 31, 1-{[({[{2-Chloro-5-[2′-methyl-5′-(pentafluoroethyl)-4′-(trifluoromethyl)-2′H-[1,3′-bipyrazol]-4-yl]benzoyl}(1-cyanocyclopropyl)amino]methoxy}carbonyl)oxy]methyl}cyclopropane-1-carboxylic Acid], the solubility at 24 h was determined as 168 µg/mL (≈ 232 µM).

In the case of `Cn1nc(C(F)(F)C(F)(F)F)c(C(F)(F)F)c1-n1cc(-c2ccc(Cl)c(C(=O)N(COC(=O)O[C@H]3CC[C@@H](OC(=O)/C=C/C(=O)O)CC3)C3(C#N)CC3)c2)cn1` [Example 32, Cis-(2E)-4-({-4-[({[{2-Chloro-5-[2′-methyl-5′-(pentafluoroethyl)-4′-(trifluoromethyl)-2′H-[1,3′-bipyrazol]-4-yl]benzoyl}(1-cyanocyclopropyl)amino]methoxy}carbonyl)oxy]cyclohexyl}oxy)-4-oxobut-2-enoic Acid], the solubility at 24 h was found to be 41 µg/mL (≈ 49.8 µM).

Consider `N#CC1(N(COC(=O)OCC2(C(=O)O)CC2)C(=O)c2cc(-c3cnn(-c4c(Cl)cc(C(F)(C(F)(F)F)C(F)(F)F)cc4OC(F)(F)F)c3)ccc2Cl)CC1` [Example 35, 1-{[({[(2-chloro-5-{1-[2-chloro-4-(1,1,1,2,3,3,3-heptafluoropropan-2-yl)-6-(trifluoromethoxy)phenyl]-1H-pyrazol-4-yl}benzoyl)(1-cyanocyclopropyl)amino]methoxy}carbonyl)oxy]methyl}cyclopropane-1-carboxylic Acid], for which the solubility at 24 h turned out to be 8 µg/mL (≈ 9.74 µM).

On to `N#CC1(N(COC(=O)OCCC(=O)O)C(=O)c2cc(-c3cnn(-c4c(Cl)cc(C(F)(C(F)(F)F)C(F)(F)F)cc4OC(F)(F)F)c3)ccc2Cl)CC1` [Example 36, 3-[({[(2-Chloro-5-{1-[2-chloro-4-(1,1,1,2,3,3,3-heptafluoropropan-2-yl)-6-(trifluoromethoxy)phenyl]-1H-pyrazol-4-yl}benzoyl)(1-cyanocyclopropyl)amino]methoxy}carbonyl)oxy]propanoic Acid], for which the solubility at 24 h turned out to be 16 µg/mL (≈ 20.1 µM).

Turning to `N#CC1(N(COC(=O)OCCCC(=O)O)C(=O)c2cc(-c3cnn(-c4c(Cl)cc(C(F)(C(F)(F)F)C(F)(F)F)cc4OC(F)(F)F)c3)ccc2Cl)CC1` [Example 37, 4-[({[(2-Chloro-5-{1-[2-chloro-4-(1,1,1,2,3,3,3-heptafluoropropan-2-yl)-6-(trifluoromethoxy)phenyl]-1H-pyrazol-4-yl}benzoyl)(1-cyanocyclopropyl)amino]methoxy}carbonyl)oxy]butanoic Acid], the solubility at 24 h came to 7 µg/mL (≈ 8.65 µM).

`Cn1nc(C(F)(F)C(F)(F)F)c(C(F)(F)F)c1-n1cc(-c2ccc(Cl)c(C(=O)N(COC(=O)O[C@@H]3CCC[C@H]3OC(=O)CCC(=O)O)C3(C#N)CC3)c2)cn1` [Example 38, 4-({(1R,2R)-2-[({[{2-Chloro-5-[2′-methyl-5′-(pentafluoroethyl)-4′-(trifluoromethyl)-2′H-[1,3′-bipyrazol]-4-yl]benzoyl}(1-cyanocyclopropyl)amino]methoxy}carbonyl)oxy]cyclopentyl}oxy)-4-oxobutanoic Acid]: the solubility at 24 h came to 37 µg/mL (≈ 45.6 µM).

On to `Cn1nc(C(F)(F)C(F)(F)F)c(C(F)(F)F)c1-n1cc(-c2ccc(Cl)c(C(=O)N(COC(=O)OCC(C)(C)COC(=O)/C=C/C(=O)O)C3(C#N)CC3)c2)cn1` [Example 39, (12E)-1-{2-chloro-5-[2′-methyl-5′-(pentafluoroethyl)-4′-(trifluoromethyl)-2′H-[1,3′-bipyrazol]-4-yl]phenyl}-2-(1-cyanocyclopropyl)-8,8-dimethyl-1,5,11-trioxo-4,6,10-trioxa-2-azatetradec-12-en-14-oic Acid], for which the solubility at 24 h came out at 43 µg/mL (≈ 53 µM).
